Assay results as given in PubChem BioAssay (NCI).
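48-hour exposure; five concentrations; linearly interpolated endpoints. At the TGI there is no net growth.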

Assays:
Experiment in all cases: NCI tumour cell line growth inhibition, 48 h
[1] = test system: HCT-116 colon
[2] = test system: HCT-15 colon
[3] = test system: HOP-62 NSCLC
[4] = test system: HS 578T breast
[5] = test system: M14 melanoma
[6] = test system: MDA-MB-231 breast
[7] = test system: NCI-H522 lung
[8] = test system: PC-3 prostate
[9] = test system: HCC-2998 colon
[10] = test system: RXF 393 renal

| Structure (SMILES) | TGI [1] | TGI [2] | TGI [3] | TGI [4] | TGI [5] | TGI [6] | TGI [7] | TGI [8] | TGI [9] | TGI [10] |
| --- | --- | --- | --- | --- | --- | --- | --- | --- | --- | --- |
| COc1cc2nc(-c3cccs3)nc(N3C(c4cc(OC)c(OC)c(OC)c4)=NNC(=O)c4ccccc43)c2cc1OC | > 100 µM | 47.8 µM | > 100 µM | > 100 µM | > 100 µM | 40.6 µM | > 100 µM | > 100 µM | – | – |
| CC(C)(CO)CNc1cc(Cl)nc(N)n1 | > 100 µM | > 100 µM | > 100 µM | > 100 µM | – | > 100 µM | > 100 µM | > 100 µM | > 100 µM | > 100 µM |
| Cc1cc(S(=O)(=O)Nc2n[nH]c(Nc3ccccc3)n2)c(SSc2cc(Cl)c(C)cc2S(=O)(=O)Nc2n[nH]c(Nc3ccccc3)n2)cc1Cl | > 100 µM | > 100 µM | > 100 µM | > 100 µM | > 100 µM | > 100 µM | – | > 100 µM | – | > 10 µM |
| COc1ccc(C2=Nc3c(nc(SC)[nH]c3=O)NC(c3ccccc3)C2)cc1 (stereo unspecified) | > 100 µM | – | > 100 µM | – | 66 µM | 30 µM | 35.7 µM | > 100 µM | – | 39 µM |
| Fc1ccc2c(c1)nc1n2C(c2c(F)cccc2F)SC1 (stereo unspecified) | > 100 µM | > 100 µM | > 100 µM | > 100 µM | > 100 µM | > 100 µM | > 100 µM | > 100 µM | > 100 µM | > 100 µM |
| CNC(=O)C1OC(n2cnc3c(NCc4cccc(I)c4)nc(Cl)nc32)C(O)C1O (stereo unspecified) | 41.7 µM | 20.4 µM | 25.2 µM | 18.7 µM | 21.9 µM | 66.6 µM | – | 24.1 µM | – | 29.6 µM |
| CCOC(=O)C1CCCN1C(=O)c1ccccc1Cl (stereo unspecified) | > 100 µM | > 100 µM | > 100 µM | > 100 µM | > 100 µM | > 100 µM | > 100 µM | – | > 100 µM | > 100 µM |
| CC1C(c2ccccc2)NC(c2ccccc2)CC1(N)C#N (stereo unspecified) | > 100 µM | > 100 µM | > 100 µM | > 100 µM | > 100 µM | > 100 µM | > 100 µM | > 100 µM | > 100 µM | > 100 µM |
| Cc1ccsc1/C=N/Nc1cc(C)c2ccccc2n1 | 28.7 µM | 28.2 µM | 78.8 µM | 38.6 µM | 34.4 µM | 12.5 µM | – | 51.4 µM | 31.7 µM | 47.8 µM |
| Cc1ccc(S(=O)(=O)N/N=C\c2c3ccccc3[n+](C)c3ccccc23)cc1 | > 100 µM | 97.4 µM | > 100 µM | – | 97.9 µM | – | > 100 µM | – | > 100 µM | 43.6 µM |
| O=C1Nc2ccccc2SC1=C(C(=O)c1ccccc1)C(=O)c1ccccc1 | > 100 µM | > 100 µM | > 100 µM | > 100 µM | > 100 µM | > 92.8 µM | 87.1 µM | > 100 µM | 63.8 µM | > 100 µM |
| Nc1ncc2c(n1)-c1ccccc1OC2 | > 100 µM | > 100 µM | > 100 µM | – | – | – | > 100 µM | – | > 100 µM | > 100 µM |
| ClC1=C(Cl)C2OC3C=CCC3OC2C(Cl)=C1Cl (stereo unspecified) | > 100 µM | > 100 µM | > 100 µM | 89.7 µM | > 100 µM | > 100 µM | > 100 µM | > 100 µM | 88.4 µM | > 100 µM |
| Clc1ncnc2c1nc(C#Cc1ccccc1)n2C1CCCCO1 (stereo unspecified) | 4.02 µM | – | 6.38 µM | 42.6 µM | 4.39 µM | 12.7 µM | 3.65 µM | 11.8 µM | 3.54 µM | – |
| OCC(S)CS.[Bi] (stereo unspecified) | 44.4 µM | 50.7 µM | 50.9 µM | 53.5 µM | 29.5 µM | 43.2 µM | 12.9 µM | 27.3 µM | 27.5 µM | 26.2 µM |
| O=S(=O)(O)c1cc(N=[N+]([O-])c2ccc(N=Nc3ccccc3)cc2S(=O)(=O)O)ccc1/C=C/c1ccc(N=[N+]([O-])c2ccc(N=Nc3ccccc3)cc2S(=O)(=O)O)cc1S(=O)(=O)O | > 100 µM | > 100 µM | > 100 µM | – | – | – | > 100 µM | – | > 100 µM | > 100 µM |
| Cc1ccc2c(c1)Nc1ccccc1P2(=O)O | > 100 µM | > 100 µM | > 100 µM | – | > 100 µM | > 100 µM | > 100 µM | > 100 µM | > 100 µM | > 100 µM |
| Nc1ccc(C(=O)O)cc1 | > 100 µM | 52 µM | > 100 µM | > 100 µM | > 100 µM | > 100 µM | > 100 µM | > 100 µM | > 100 µM | – |
| O=C(NNc1nc(-c2ccccc2)cs1)Nc1ccccc1 | 58.5 µM | 74.4 µM | 56.8 µM | 74.3 µM | > 100 µM | 54.4 µM | – | 39.1 µM | 70.6 µM | 36.8 µM |
| NS(=O)(=O)c1ccc(NCc2nc3ccccc3[nH]2)cc1 | > 100 µM | > 100 µM | > 100 µM | > 100 µM | > 100 µM | > 100 µM | > 100 µM | > 100 µM | – | > 100 µM |
| Cn1c(-c2c(C3=CC(=O)N(c4ccccc4)C3=O)c3ccccc3n2C)cc2ccccc21 | > 100 µM | > 100 µM | > 100 µM | – | > 100 µM | > 100 µM | > 100 µM | > 100 µM | > 100 µM | > 100 µM |
| CC1=NN2CCC(=O)N=C2S1 | > 100 µM | > 100 µM | > 100 µM | > 100 µM | > 100 µM | > 100 µM | > 100 µM | > 100 µM | – | > 100 µM |
| CC(C)N1[C@@H]2CCCC[C@H]2N(C(C)C)[P+]1=O | > 100 µM | > 100 µM | > 100 µM | > 100 µM | > 100 µM | – | > 100 µM | – | > 100 µM | > 100 µM |
| CC(C)=CCC[C@@H](C)C1=C(O)C(Nc2ccccc2)=C(C)C(=O)C1=O | > 75.6 µM | > 78.7 µM | > 55.2 µM | > 100 µM | 34.9 µM | > 100 µM | – | > 100 µM | > 100 µM | 60.7 µM |
